The record followed here is patent publication US8778982B2, “Synergistic microbicidal compositions” (Rohm and Haas Company, priority 2007, dated 2014).

The term MIC denotes the smallest concentration in the dilution series that meets the test's criterion for growth inhibition.

Common to all, as to format: cell-based
The subject of test [1] is Aspergillus niger (A. niger—ATCC 16404). In words: Synergy test, microtiter plate high resolution MIC assay, PDB medium, mold. As to conditions: for MIC: Aspergillus niger; for SI / Qb: A. niger 16404 - PDB (10 days), A = MIT; for Qb: B alone where Qa = 0. From the text: (§1) One measure of synergism is the industrially accepted method described by Kull, F. C.; Eisman, P. C.; Sylwestrowicz, H. D. and Mayer, R. L., in Applied Microbiology 9:538-541 (1961), using the ratio determined by the formula: Qa/QA+Qb/QB=Synergy Index(“SI”) wherein: • QA=concentration of compound A (first component) in ppm, acting alone, which produced an end point (MIC of Compound A). • Qa=concentration of compound A in ppm, in the mixture, which produced an end point. • QB=concentration of compound B (second component) in ppm, acting alone, which produced an end point (MIC of Compound B). • Qb=concentration of compound B in ppm, in the mixture, which produced an end point.
(§2) When the sum of Qa/QA and Qb/QB is greater than one, antagonism is indicated. […] The lower the SI, the greater is the synergy shown by that particular mixture. The minimum inhibitory concentration (MIC) of a microbicide is the lowest concentration tested under a specific set of conditions that prevents the growth of the tested microorganisms.
(§3) Synergy tests were conducted using standard microtiter plate assays with media designed for optimal growth of the test microorganism. Minimal salt medium supplemented with 0.2% glucose and 0.1% yeast extract (M9GY medium) was used for testing bacteria; Potato Dextrose Broth (PDB medium) was used for testing yeast and mold. In this method, a wide range of combinations of microbicides and other personal care raw materials was tested by conducting high resolution MIC assays in the presence of various concentrations of CMIT/MIT, MIT, or BIT. High resolution MICs were determined by adding varying amounts of microbicide to one column of a microtitre plate and doing subsequent […] dilutions using an automated liquid handling system to obtain a series of endpoints ranging from 2 ppm to 10,000 ppm active ingredient.
(§4) The synergy of the combinations of the present invention was determined against a bacterium, Escherichia coli (E. coli—ATCC #8739), a yeast, Candida albicans (C. albicans—ATCC 10231), and a mold, Aspergillus niger (A. niger—ATCC 16404). The bacteria were used at a concentration of about 5×10^6 bacteria per mL and the yeast and mold at 5×10^5 fungi per mL. These microorganisms are representative of natural contaminants in many consumer and industrial applications. […] (yeast and mold) or 30° C. (bacteria).

Test [2] deals with Escherichia coli (E. coli—ATCC #8739). Description: Synergy test, microtiter plate high resolution MIC assay, M9GY medium, bacterium. The following applies: for MIC: Escherichia coli, ATCC8739, 24 h; for SI / Qb: E. coli 8739 - M9GY (1 day), A = MIT; for Qb: B alone where Qa = 0.
Text: as §1, §2, §3, §4

Test [3] deals with Candida albicans (C. albicans—ATCC 10231). Description: Synergy test, microtiter plate high resolution MIC assay, PDB medium, yeast. As to conditions: for MIC: Candida albicans; for SI / Qb: C. albicans 10231 - PDB (6 days), A = MIT; for Qb: B alone where Qa = 0.
Text: as §1, §2, §3, §4

Where two headings read alike, the source gives them in different places.

For `CCCCCCCCCCCC(=O)OCC(O)CO` (stereo not shown) [Glycerol monolaurate], the “Synergy Index (SI) = Qa/QA+Qb/QB” value is 1.00 in test [1] (A. niger 16404, PDB, 3 days); 1.00 in test [1] (A. niger 16404, PDB, 10 days); 1.00 in test [2] (E. coli 8739, M9GY, 1 day); 1.00 in test [3] (C. albicans 10231, PDB, 1 day); 1.00 in test [3] (C. albicans 10231, PDB, 6 days). Also, the “SI (synergy index)” value was found to be 1.00 in test [1] (A. niger 16404, PDB, 10 days); 1.00 in test [2] (E. coli 8739, M9GY, 1 day); 1.00 in test [3] (C. albicans 10231, PDB, 6 days). The MIC in test [1] (ATCC16404, 72 h, read-out: MIC of the component acting alone (QA or QB)) was determined as 20 mg/mL; in test [1] (ATCC16404, 240 h, read-out: MIC of the component acting alone (QA or QB)), 20 mg/mL; in test [1] (ATCC16404, 240 h, read-out: MIC of the component acting alone (Qa or Qb with the other component at 0)) it was 20 mg/mL; in test [2] (read-out: MIC of the component acting alone (QA or QB)), 20 mg/mL; in test [2] (read-out: MIC of the component acting alone (Qa or Qb with the other component at 0)), 20 mg/mL; in test [3] (ATCC10231, 24 h, read-out: MIC of the component acting alone (QA or QB)) it was 20 mg/mL. In addition, the MIC is 20 mg/mL in test [3] (ATCC10231, 144 h, read-out: MIC of the component acting alone (QA or QB)) and 20 mg/mL in test [3] (ATCC10231, 144 h, read-out: MIC of the component acting alone (Qa or Qb with the other component at 0)).

Turning to `CCCCCCCCCC(=O)OCC(O)CO` (stereo not shown) [Glyceryl caprate], the “SI (synergy index)” value in test [1] (A. niger 16404, PDB, 3 days) amounted to 1.00; in test [2] (E. coli 8739, M9GY, 1 day) it was 1.00; in test [3] (C. albicans 10231, PDB, 6 days) it was 1.00. Further, the “Synergy Index (SI) = Qa/QA+Qb/QB” value was 1.00 in test [1] (A. niger 16404, PDB, 3 days); 1.00 in test [2] (E. coli 8739, M9GY, 1 day); 1.00 in test [3] (C. albicans 10231, PDB, 1 day). Moreover, the SI in test [1] (B = Glyceryl caprate), in test [2] (B = Glyceryl caprate) and in test [3] (B = Glyceryl caprate) was 1.00 each time. In addition, the figures for the Qb in test [1] (B = Glyceryl caprate), in test [2] (B = Glyceryl caprate) and in test [3] (B = Glyceryl caprate) were 2000 ppm, 20000 ppm and 2000 ppm, respectively. Also, the MIC in test [1] (ATCC16404, 72 h, A. niger 16404, PDB, 3 days, 25° C., read-out: MIC of the component acting alone (QA or QB)) is 2 mg/mL; in test [1] (ATCC16404, 72 h, A. niger 16404, PDB, 3 days, read-out: MIC of the component acting alone (Qa or Qb with the other component at 0)), 2 mg/mL; in test [2] (E. coli 8739, M9GY, 1 day, 30° C., read-out: MIC of the component acting alone (QA or QB)) it was 20 mg/mL; in test [2] (E. coli 8739, M9GY, 1 day, read-out: MIC of the component acting alone (Qa or Qb with the other component at 0)) it was 20 mg/mL; in test [3] (ATCC10231, 24 h, C. albicans 10231, PDB, 1 day, 25° C., read-out: MIC of the component acting alone (QA or QB)), 2 mg/mL; in test [3] (ATCC10231, 144 h, C. albicans 10231, PDB, 6 days, read-out: MIC of the component acting alone (Qa or Qb with the other component at 0)), 2 mg/mL.

Regarding `CCCCCCCCCCCC(=O)N[C@@H](CCCNC(=N)N)C(=O)OCC.Cl` [Lauric arginate, N-α-lauoryl-L-arginine ethyl ester monohydrochloride], the “MIC of the component acting alone (Qa or Qb with the other component at 0)” value in test [1] (A. niger 16404, PDB, 3 days) is 2000 ppm; in test [2] (E. coli 8739, M9GY, 1 day), 300 ppm; in test [3] (C. albicans 10231, PDB, 6 days) it was 200 ppm. In addition, the “SI (synergy index)” value in test [1] (A. niger 16404, PDB, 3 days) was 1.00; in test [2] (E. coli 8739, M9GY, 1 day) it was 1.00; in test [3] (C. albicans 10231, PDB, 6 days) it was 1.00. In addition, the “Synergy Index (SI) = Qa/QA+Qb/QB” value is 1.00 in test [1] (A. niger 16404, PDB, 4 days); 1.00 in test [2] (E. coli 8739, M9GY, 1 day); 1.00 in test [3] (C. albicans 10231, PDB, 1 day). Moreover, the “MIC of the component acting alone (QA or QB)” value turned out to be 2000 ppm in test [1] (A. niger 16404, PDB, 4 days, 25° C.); 200 ppm in test [2] (E. coli 8739, M9GY, 1 day, 30° C.); 800 ppm in test [3] (C. albicans 10231, PDB, 1 day, 25° C.). The SI in test [1] (B = Lauric arginate), in test [2] (B = Lauric arginate) and in test [3] (B = Lauric arginate) was 1.00 in each case. For the same compound, the figures for the Qb in test [1] (B = Lauric arginate), in test [2] (B = Lauric arginate) and in test [3] (B = Lauric arginate) were 2000 ppm, 300 ppm and 800 ppm, respectively.
